Source: PMC5332298 (Nature cell biology, 2017)
Like-named read-outs stand apart in the source and are kept apart here.

Experiments:
LINK-A-PIP3 interaction [1] = experiment: RNA-lipid vesicles; type: binding; settings: 100:1 molar ratio to PIP3
LINK-A-PIP3 interaction [2] = experiment: RNA-lipid overlay assay on PIP arrays with soluble competitors; type: binding; settings: 100:1 molar ratio to RNA
[3] = system: LINK-A-PIP3 interaction in MDA-MB-231 cells; experiment: RIP assay using a PIP3 antibody; settings: MDA-MB-231 cells treated with PI3K inhibitor
AKT-PIP3 binding = AKT-PIP3 binding (Homo sapiens, UniProt P31749); experiment: biochemical
Sequence of AKT-PIP3 binding (P31749 whole entry): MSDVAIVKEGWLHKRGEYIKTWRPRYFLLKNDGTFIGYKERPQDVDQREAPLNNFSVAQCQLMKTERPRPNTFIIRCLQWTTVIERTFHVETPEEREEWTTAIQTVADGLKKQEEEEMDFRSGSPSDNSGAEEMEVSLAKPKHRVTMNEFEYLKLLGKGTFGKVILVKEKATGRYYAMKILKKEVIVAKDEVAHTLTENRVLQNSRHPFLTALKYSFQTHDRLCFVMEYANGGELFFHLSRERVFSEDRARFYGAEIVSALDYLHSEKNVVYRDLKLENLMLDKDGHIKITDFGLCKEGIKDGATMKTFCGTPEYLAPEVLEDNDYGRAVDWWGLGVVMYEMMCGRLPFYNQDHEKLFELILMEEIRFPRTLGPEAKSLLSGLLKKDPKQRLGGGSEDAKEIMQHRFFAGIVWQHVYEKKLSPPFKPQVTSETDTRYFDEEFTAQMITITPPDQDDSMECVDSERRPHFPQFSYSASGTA

MDA-MB-231 spheroids [4] = experiment: 3-D spheroid fluorometric proliferation/viability assay; type: cell-based, Human; settings: for proliferation (growth) of spheroids: 50 nM MK2206 or 25 nM perifosine, 4 days
MDA-MB-231 spheroids [5] = experiment: 3D spheroid BME cell invasion assay; type: cell-based, Human; settings: 50 nM MK2206 or 25 nM perifosine, 4 days
[6] = system: MS2-LINK-A-PIP3 interaction in MDA-MB-231 cells; experiment: MS2-TRAP assay with PIP3 mass ELISA; type: cell-based, Human; settings: cell permeable competitor 100 µM, 2 hrs
[7] = molecular target: AKT (His6-tagged recombinant, ThermoFisher) (UniProt P31749 1-480); experiment: Alpha competition assay
Sequence of AKT (His6-tagged recombinant, ThermoFisher) (P31749 whole entry): as above

## O=P(O)(O)OC1[C@H](O)[C@H](OP(=O)(O)O)C(OP(=O)(O)O)[C@H](OP(=O)(O)O)[C@H]1O (stereo partly drawn) [IP4, D-myo-Inositol 1,3,4,5-tetrakisphosphate]
LINK-A-PIP3 interaction [1]
  effect of competitor on recruitment of LINK-A ΔPC to PIP3-containing GUVs: abolished
LINK-A-PIP3 interaction [2]
  effect of soluble competitor on LINK-A binding to PIP array: abolished

## O=c1cc(N2CCOCC2)oc2c(-c3ccccc3)cccc12 [LY294002]
[3]
  LINK-A-PIP3 interaction in vivo (RIP with PIP3 antibody): abolished

## NC1(c2ccc(-c3nc4ccn5c(=O)[nH]nc5c4cc3-c3ccccc3)cc2)CCC1 [MK2206]
AKT-PIP3 binding; in vitro, presence of FL LINK-A
  antagonism of the inhibitory effect by FL LINK-A: 753 fold
MDA-MB-231 spheroids [4]; LINK-A PIP3-BM−/− spheroids
  proliferation (growth) of spheroids: efficiently inhibited
MDA-MB-231 spheroids [4]; LINK-A PIP3BM+/+ spheroids
  proliferation (growth) of spheroids: undetectable effect
MDA-MB-231 spheroids [5]; LINK-A PIP3-BM−/− spheroids
  invasion of spheroids: efficiently inhibited
MDA-MB-231 spheroids [5]; LINK-A PIP3BM+/+ spheroids
  invasion of spheroids: undetectable effect

## O=P(O)(O)OC1[C@@H](OP(=O)(O)O)[C@H](OP(=O)(O)O)C(O)[C@H](OP(=O)(O)O)[C@H]1OP(=O)(O)O (stereo partly drawn) [PI(1,3,4,5,6)P5]
[6]
  MS2-LINK-A-associated PIP3 (PIP3 mass ELISA): impaired

## CCCCCCCCCCCCCCCCCCOP(=O)([O-])OC1CC[N+](C)(C)CC1 [perifosine]
AKT-PIP3 binding
  antagonism of the inhibitory effect by FL LINK-A: 140 fold
AKT-PIP3 binding; IC50 for inhibiting AKT-PIP3 binding
  IC50: 4.8 µM
MDA-MB-231 spheroids [4]; LINK-A PIP3-BM−/− spheroids
  proliferation (growth) of spheroids: efficiently inhibited
MDA-MB-231 spheroids [4]; LINK-A PIP3BM+/+ spheroids
  proliferation (growth) of spheroids: undetectable effect
MDA-MB-231 spheroids [4]; spheroid viability IC50
  sensitization of LINK-A PIP3-BM−/− spheroids vs PIP3-BM+/+: about 20,000 fold
MDA-MB-231 spheroids [5]; LINK-A PIP3-BM−/− spheroids
  invasion of spheroids: efficiently inhibited
MDA-MB-231 spheroids [5]; LINK-A PIP3BM+/+ spheroids
  invasion of spheroids: undetectable effect

## Phosphatidylinositol-3,4,5-trisphosphate [PIP3]
LINK-A-PIP3 interaction [2]
  effect of soluble competitor on LINK-A binding to PIP array: abolished

## CAGGGUAGACUCGCUCUG (structured_RNA) [LINK-A nt 1100-1117 WT]
[7]
  binding result: binds
